Like-named read-outs stand apart in the source and are kept apart here.
How the values were obtained:
mannose receptor (CD206) [1] = target: T1, mannose receptor (CD206) (Homo sapiens, UniProt P22897)
Description: (§1) The mass dose of tilmanocept injected into the subjects varied from 125 μg to 400 μg. […] The images shown in FIGS. 1 and 2 were acquired using a Siemens Symbia Intevo camera. Image acquisition times varied between studies from 5-10 minutes.

mannose receptor (CD206) [2] = target: T1, mannose receptor (CD206); conditions: for Mean Joint Specific MARTAD: 5 healthy subjects, IV, 10 mCi 99mTc; for Cutoff Value (MARTAD 2 S.D. above the joint specific mean): from 5 healthy subjects
Description: In certain aspects, the pixel intensities of the ROI and RR are used to derive normalized region-specific mannose receptor targeted localization determination (MARTAD) value. The MARTAD value is quantitative index of the amount of imaging agent localization that can be attributable to disease activity in planar images. Defined broadly, the MARTAD value is determined by assessing the ratio of average pixel intensity of the ROI to the average pixel intensity of the RR. In certain alternative embodiments, the MARTAD value is determined by assessing the ratio of maximum pixel intensity of the ROI to the maximum pixel intensity of the RR.
Following MARTAD value determination for a joint or plurality of joints, the MARTAD value can be used to determine macrophage involvement by comparing the MARTAD of the first joint to a normal MARTAD value for a corresponding joint (e.g., RtPIP2 RA vs RtPIP2 healthy). In certain implementations, the normal MARTAD value is determined by aggregating the MARTAD values for each joint from a pool of healthy subjects (e.g., not suffering from RA). In exemplary implementations, the method for defining the joint specific RR in the pool of healthy subjects will be the same as that used for the patient population. Macrophage involvement in a subject is indicated by a joint specific MARTAD value that exceeds the normal MARTAD value by a predetermined threshold. […] In certain alternative implementations, the predetermined threshold subject joint MARTAD value greater above the 95% confidence interval of the average MARTAD value corresponding joint from the plurality of healthy subjects.
as §1
Cutoff values for determination of macrophage involvement in RA inflammation set at MARTAD values greater than 2 S.D. above the joint specific mean.

T1 sequence (P22897 19-1456): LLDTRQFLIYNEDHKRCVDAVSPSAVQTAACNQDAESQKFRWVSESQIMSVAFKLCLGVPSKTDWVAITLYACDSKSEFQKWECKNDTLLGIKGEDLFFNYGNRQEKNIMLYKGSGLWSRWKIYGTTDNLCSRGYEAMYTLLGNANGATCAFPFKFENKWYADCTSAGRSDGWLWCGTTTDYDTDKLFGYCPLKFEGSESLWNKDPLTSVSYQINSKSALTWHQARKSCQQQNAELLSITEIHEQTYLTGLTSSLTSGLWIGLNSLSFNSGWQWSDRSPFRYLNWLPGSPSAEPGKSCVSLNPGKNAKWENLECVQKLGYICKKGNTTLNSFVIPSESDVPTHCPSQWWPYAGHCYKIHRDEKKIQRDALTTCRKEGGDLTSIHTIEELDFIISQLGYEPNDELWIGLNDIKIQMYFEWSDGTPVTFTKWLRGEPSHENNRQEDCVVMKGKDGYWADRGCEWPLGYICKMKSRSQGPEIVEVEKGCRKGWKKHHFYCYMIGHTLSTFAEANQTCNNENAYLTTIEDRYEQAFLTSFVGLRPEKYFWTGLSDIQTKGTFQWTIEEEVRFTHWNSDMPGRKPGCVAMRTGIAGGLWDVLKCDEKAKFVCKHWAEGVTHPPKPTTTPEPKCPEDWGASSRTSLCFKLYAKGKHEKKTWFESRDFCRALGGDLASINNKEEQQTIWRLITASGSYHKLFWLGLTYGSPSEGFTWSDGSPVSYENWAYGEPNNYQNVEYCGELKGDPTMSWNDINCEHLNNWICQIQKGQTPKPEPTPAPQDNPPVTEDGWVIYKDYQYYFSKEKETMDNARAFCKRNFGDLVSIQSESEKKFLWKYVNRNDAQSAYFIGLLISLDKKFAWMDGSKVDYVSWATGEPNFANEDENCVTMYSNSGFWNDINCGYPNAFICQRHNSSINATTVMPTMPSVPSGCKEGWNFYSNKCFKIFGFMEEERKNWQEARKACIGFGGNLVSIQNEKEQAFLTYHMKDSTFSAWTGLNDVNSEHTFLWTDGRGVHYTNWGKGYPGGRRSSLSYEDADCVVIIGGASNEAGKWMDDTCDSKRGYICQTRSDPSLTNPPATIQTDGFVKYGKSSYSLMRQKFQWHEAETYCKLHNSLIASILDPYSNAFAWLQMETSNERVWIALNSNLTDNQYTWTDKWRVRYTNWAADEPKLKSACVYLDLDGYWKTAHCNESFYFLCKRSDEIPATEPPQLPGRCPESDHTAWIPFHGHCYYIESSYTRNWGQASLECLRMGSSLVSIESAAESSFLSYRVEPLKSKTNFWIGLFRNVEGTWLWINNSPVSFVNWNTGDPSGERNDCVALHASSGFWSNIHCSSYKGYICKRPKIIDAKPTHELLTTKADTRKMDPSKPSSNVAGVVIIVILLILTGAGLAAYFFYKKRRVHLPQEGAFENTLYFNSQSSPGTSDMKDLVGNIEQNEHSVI

dextran 3-[(2-aminoethyl)thio]propyl 17-carboxy-10,13,16-tris(carboxymethyl)-8-oxo-4-thia-7,10,13,16-tetraazaheptadec-1-yl 3-[[2-[[1-imino-2-(D-mannopyranosylthio)ethyl]amino]ethyl]thio]propyl ether complexes [Tc99m-tilmanocept]
Sensitivity of MARTAD values to image acquisition time (mannose receptor (CD206) [1]; image acquisition times 5-10 minutes): not sensitive
Effect of mass dose on image quality (mannose receptor (CD206) [1]; mass dose of tilmanocept 125 μg to 400 μg IV, separate studies (not shown)): did not impact image quality
MARTAD values of repeat images versus first images (mannose receptor (CD206) [1]; repeat images 180-240 minutes after injection vs 45-75 minutes, same subjects): statistically similar
Mean Joint Specific MARTAD (mannose receptor (CD206) [2]; MCP1): 0.87
Cutoff Value (MARTAD 2 S.D. above the joint specific mean) (mannose receptor (CD206) [2]; MCP1): 0.99
Mean Joint Specific MARTAD (mannose receptor (CD206) [2]; MCP2): 0.86
Cutoff Value (MARTAD 2 S.D. above the joint specific mean) (mannose receptor (CD206) [2]; MCP2): 1.13
Mean Joint Specific MARTAD (mannose receptor (CD206) [2]; MCP3): 0.79
Cutoff Value (MARTAD 2 S.D. above the joint specific mean) (mannose receptor (CD206) [2]; MCP3): 0.93
Mean Joint Specific MARTAD (mannose receptor (CD206) [2]; MCP4): 0.77
Cutoff Value (MARTAD 2 S.D. above the joint specific mean) (mannose receptor (CD206) [2]; MCP4): 1.00
Mean Joint Specific MARTAD (mannose receptor (CD206) [2]; MCP5): 0.76
Cutoff Value (MARTAD 2 S.D. above the joint specific mean) (mannose receptor (CD206) [2]; MCP5): 1.08
Mean Joint Specific MARTAD (mannose receptor (CD206) [2]; PIP1): 0.98
Cutoff Value (MARTAD 2 S.D. above the joint specific mean) (mannose receptor (CD206) [2]; PIP1): 1.21
Mean Joint Specific MARTAD (mannose receptor (CD206) [2]; PIP2): 1.05
Cutoff Value (MARTAD 2 S.D. above the joint specific mean) (mannose receptor (CD206) [2]; PIP2): 1.34
Mean Joint Specific MARTAD (mannose receptor (CD206) [2]; PIP3): 1.03
Cutoff Value (MARTAD 2 S.D. above the joint specific mean) (mannose receptor (CD206) [2]; PIP3): 1.39
Mean Joint Specific MARTAD (mannose receptor (CD206) [2]; PIP4): 0.93
Cutoff Value (MARTAD 2 S.D. above the joint specific mean) (mannose receptor (CD206) [2]; PIP4): 1.19
Mean Joint Specific MARTAD (mannose receptor (CD206) [2]; PIP5): 0.87
Cutoff Value (MARTAD 2 S.D. above the joint specific mean) (mannose receptor (CD206) [2]; PIP5): 1.14
Mean Joint Specific MARTAD (mannose receptor (CD206) [2]; Wrists, images 45-75 min after injection): 1.04
Cutoff Value (MARTAD 2 S.D. above the joint specific mean) (mannose receptor (CD206) [2]; Wrists): 1.24

Source: patent US20200237937A1, “COMPOSITIONS AND METHODS FOR ASSESSING […] PATHOLOGY” (Navidea Biopharmaceuticals, Inc., priority 2019, published 2020)
